Laboratory results taken from patent publication US5006531A, “5,6-dihydro(1H-indolo(3,2-C)quinoline-6,4'-piperidines) and related compounds which are useful for treating pain, psychosis or convulsions” (Hoechst-Roussel Pharmaceuticals Inc., priority 1989, dated 1991).
Counter-ions that a name gives are not always drawn.

Tests used:
Format in all cases: in vivo
CK-1 male mice = assay: climbing mice assay (apomorphine-induced climbing, antipsychotic activity); details: Mus musculus, apomorphine 1.5 mg/kg s.c.
Method: Antipsychotic activity is determined in the climbing mice assay by methods similar to those described by P. Protais, et al., Psychopharmacol., 50, 1 (1976) and B. Costall, Eur. J. Pharmacol., 50, 39, (1978).
The subject CK-1 male mice (23-27 grams) are group-housed under standard laboratory conditions. The mice are individually placed in wire mesh stick cages (4"×4" by 10") and are allowed one hour for adaptation and exploration of the new environment. Then apomorphine is injected subcutaneously at 1.5 mg/kg, a dose causing climbing in all subjects for 30 minutes. Compounds to be tested for antipsychotic activity are injected intraperitoneally 30 minutes prior to the apomorphine challenge at a screening dose of 10 mg/kg.
For evaluation of climbing, 3 readings are taken at 10, 20 and 30 minutes after apomorphine administration according to the following scale:
4 paws on bottom (no climbing)
2 paws on the wall (rearing)
4 paws on the wall (full climb)
Mice consistently climbing before the injection of apomorphine are discarded.
With full-developed apomorphine climbing, the animals are hanging onto the cage walls, rather motionless, over long periods of time. By constrast, climbs due to mere motor stimulation usually last only a few seconds.
The climbing scores are individually totaled (maximum score: 6 per mouse over 3 readings) and the total score of the control group (vehicle intraperitoneally; apomorphine subcutaneously) is set to 100%. ED50 values with 95% confidence limits, calculated by a linear regression analysis, of some of the compounds of this invention are presented in Table 2.
Results of the climbing mice assay for some of the compounds of this invention along with a result for a reference compounds are presented in Table 2.

mice = assay: 2-phenyl-1,4-benzoquinone-induced writhing (PQW) test in mice (analgesic activity); details: for PQW: s.c.
Source text: Compounds I of the present invention are useful as analgesic agents due to their ability to alleviate pain in mammals. […] Exptl. Biol. Med., 95, 729 (1957)].

male mice = assay: supramaximal electroshock (SES) assay in the mouse (anticonvulsant activity)
Method: Compounds I of the present invention are also useful as anticonvulsant agents due to their anticonvulsant activity in mammals. Anticonvulsant activity is measured in the mouse using the supramaximal electroshock (SES) assay described in Arch. Int. Pharmacodyn. 92: 97-107, 1952. In this procedure groups of male mice, 18-30 grams, are used. Drugs are prepared using distilled water and, if insoluble, a surfactant is added. Control animals receive vehicle. Drugs are routinely administered intraperitoneally (i.p.). The dosage volume is 10 ml/kg. A primary screen is given a 30 minute pretreat. The animal's eyes are placed across the output terminals of an A.C. shocker that delivers 206 volts rms for 300 msec. Electrode paste coats the animal's eyes at the point of contact with the terminals. […] Protection is expressed as normalized percent inhibition relative to vehicle control.
A time response is carried out using six animals/group. Animals are tested at 30, 60 and 120 minutes postdrug. Additional time periods are tested if indicated by previous tests. When the peak activity time has been determined, a dose response is initiated using 10 animals/group at that time period. The ED50 and 95% confidence interval are calculated by computer probit analysis.
Test results of supramaximal electroshock for a compound of this invention along with a result for a reference compound are presented in Table 3.

[1] = ip, 30 minutes prior to apomorphine challenge

CN1CCC2(CC1)c1c([nH]c3ccccc13)-c1ccccc1N2C [1',5-Dimethyl-5,6-dihydrospiro[1H-indolo[3,2-c]quinoline-6,4'-piperidine]fumarate, hemiethanolate]
ED50 (CK-1 male mice; [1]): 19.8 mg/kg | ED50 (mice; Mus musculus, sc): 10.3 mg/kg

CC(=O)N1CCC2(CC1)NC1=CC=CCC1=C1N=c3ccccc3=C12 [1'-Acetyl-5,6-dihydrospiro[1H-indolo[3,2-c]quinoline-6,4'-piperidine]]
PQW (mice; at 20 mg/kg): -66%

CCN1CCC2(CC1)NC1=CC=CCC1=C1N=c3ccccc3=C12 [1'-Ethyl-5,6-dihydrospiro[1H-indolo[3,2-c]quinoline-6,4'-piperidine]]
supramaximal electroshock, normalized percent inhibition relative to vehicle control (male mice; at 60 mg/kg, i.p.): -80%

c1ccc(CCN2CCC3(CC2)Nc2ccccc2-c2[nH]c4ccccc4c23)cc1 [1'-Phenethyl-5,6-dihydrospiro[1H-indolo[3,2-c]quinoline-6,4'-piperidine]fumarate]
PQW (mice; at 5 mg/kg): -55%

CN1CCC2(CC1)c1c([nH]c3ccccc13)-c1ccc(Cl)cc1N2C [3-Chloro-5,1'-dimethyl-5,6-dihydrospiro[1H-indolo-[3,2-c]quinoline-6,4'-piperidine]dihydrochloride]
ED50 (CK-1 male mice; [1]): 13.2 mg/kg

CNC1=Nc2ccc(Cl)cc2C(c2ccccc2)=[N+]([O-])C1 [Chlorodiazepoxide, reference compound]
ED50 (male mice; ip, reference compound): 8 mg/kg

CN1CCN(C2=Nc3cc(Cl)ccc3Nc3ccccc32)CC1 [Clozapine, reference compound]
ED50 (CK-1 male mice; sc, reference compounds): 8.1 mg/kg

CC(C)=CCN1CCC2(C)c3cc(O)ccc3CC1C2C (stereo not drawn) [Pentazocine, reference compound]
PQW (mice; at 1.3 mg/kg, reference compound): -50%
